In PubChem BioAssay AID651579 (Sanford-Burnham Center for Chemical Genomics, 2012) one finds IC50 data, which are given here for 3 compounds.

The source made the active and inactive calls. The rule behind the calls is not given here. A value given as a limit tells only on which side of the number the result lay.

This experiment concerns C. elegans hsp-16.2 reporter, heat-shock counterscreen. In words: heat-shock hsp-16.2 reporter inhibition in worms, dose response, counter-screen for SKN-1 inhibitor project, whole organism, C. elegans (AID 651579).
For the compound `CC(C)c1ccc(C(=O)Nc2ccc(CN3CCOCC3)cc2)cc1`, the IC50 (in general, the concentration needed to halve the response being measured) was > 64 µM (inactive).

Take `CN(C)C(CNC(=O)CCc1nc2cc(Cl)ccc2n(Cc2ccccc2)c1=O)c1ccccc1` (stereo not drawn): the IC50 was > 64 µM (inactive). Under `C=CCSc1ncc(-c2ccccc2)cn1` stands > 64 µM (inactive).
